What was measured:
HEK293 cells = assay: CellTiter-Glo Luminescent Cell Viability Assay in HEK293 cells; format: cell-based; conditions: Homo sapiens, 168 h, 7 days incubation, 3 μM to 0.00015 μM
Source text: CellTiter-Glo™ Assay in HEK293 Cells
The CellTiter-Glo™ Luminescent Cell Viability Assay (Promega) is a homogeneous method of determining the number of viable cells in culture based on quantitation of the ATP present, which signals the presence of metabolically active cells.
HEK293 cells (human embryonic kidney cell line transformed by Adenovirus 5 fragments, ATCC-No. CRL 1573) were cultivated in Dulbecco's Modified Eagle Medium (DMEM) with Glutamax™ (Invitrogen, 31966-021), 5% Fetal Calf Serum (FCS, Sigma Cat-No. F4135 (FBS)), 100 Units/ml penicillin/100 μg/ml streptomycin (=Pen/Strep from Invitrogen Cat. No. 15140)., For the assay the cells were seeded in 384 well plates, 5000 cells per well, in the same medium. The next day the test compounds were added in various concentrations ranging from 3 μM to 0.00015 μM (10 concentrations, 1:3 diluted). After 7 days the CellTiter-Glo™ assay was done according to the instructions of the manufacturer (CellTiter-Glo™ Luminescent Cell Viability Assay, from Promega). In brief: the cell-plate was equilibrated to room temperature for approximately 30 minutes and than the CellTiter-Glo™ reagent was added. The contents were carefully mixed for 15 minutes to induce cell lysis. After 45 minutes the luminescent signal was measured in Victor 2, (scanning multiwell spectrophotometer, Wallac).
Medium: Dulbecco's Modified Eagle Medium (DMEM) with Glutamax™ (Invitrogen, 31966-021), 5% Fetal Calf Serum (FCS, Sigma Cat-No. F4135 (FBS)), Pen/Strep (Invitrogen Cat. No. 15140).
Incubate 24 h at 37° C., 5% CO2
2nd Day: Induction (Substance Testing):
In general the dilution steeps are 1:3 • a) Add 8 μl of 10 mM stock solution of compound to 72 μl DMSO • b) dilute 9×1:3 (always 30 μl to 60 μl DMSO) in this DMSO dilution row (results in 10 wells with concentrations from 1000 μM to 0.06 μM) • c) dilute each concentration 1:4.8 (10 μl compound dilution to 38 μl medium) • d) dilute each concentration 1:10 (10 μl compound dilution to 90 μl medium) • e) add 10 μl of every concentration to 60 μl medium in the cell plate • resulting in final concentration of DMSO: 0.3% in every well • and resulting in final concentration of compounds from 3 μM to 0.00015 μM • Incubate 168 h (7 days) at 37° C., 5% CO2
Analysis: • Add 30 μl CellTiter-Glo™ Reagent/well, • shake 15 minutes at room temperature • incubate further 45 minutes at room temperature without shaking.
Measurement: • Victor 2 scanning multiwell spectrophotometer (Wallac), Luminescence mode • Determine IC50 with XL-fit (XLfit software (ID Business Solution Ltd., Guilford, Surrey, UK)).

A549 cells = assay: MTT assay in A549 cells; format: cell-based, human; conditions: Homo sapiens, 120 h, 5 days incubation, 3 μM to 0.15 nM
Method: To further show the activity of the compounds according to this invention, their effects on a […] was evaluated using a standard MTT-assay. MTT (3-(4,5-dimethylthiazol-2-yl)-2,5-diphenyl tetrazolium bromide) is widely used for the quantitative determination of cytotoxic effects or in vitro chemosensitivity of tumor cells. The assay is based on the cleavage of the yellow tetrazolium salt (MTT) to purple formazan crystals by metabolic active cells. For details, see Rubinstein, L. V., et al., J. Natl. Cancer Inst. 82 (1990) 1113-1118.
A549 cells (human lung carcinoma cell line ATTC-No. CCL-185) were cultivated in RPMI (Roswell Park Memorial Institute) 1640 medium with GlutaMAX™ I (Invitrogen, Cat-No. 61870-010), 2,5% Fetal Calf Serum (FCS, Sigma Cat-No. F4135 (FBS)); 100 Units/ml penicillin/100 μg/ml streptomycin (=Pen/Strep from Invitrogen Cat. No. 15140). For the assay the cells were seeded in 384 well plates, 900 cells per well, in the same medium. The next day compounds (dissolved 10 mM in dimethylsulfoxide (DMSO)) were added in various concentrations ranging from 3 μM to 0.15 nM (10 concentrations, 1:3 diluted). After 5 days MTT assay was done mainly according to the instructions of the manufacturer (Cell proliferation kit I, MTT, from Roche Molecular Biochemicals). In brief: MTT labeling reagent (3-(4,5-dimethylthiazol-2-yl)-2,5-diphenyltetrazolium bromide (MTT)) was added to a final concentration of 0.5 mg/ml, added and incubated for 4 hrs at 37° C., 5% CO2. During this incubation time purple formazan crystals are formed. After addition of the solubilization solution (20% Sodium Dodecyl Sulfate (SDS) in 0.02 M HCl) the plates were incubated overnight at 37° C., 5% CO2. After careful mixing plates were measured in Victor 2 scanning multiwell spectrophotometer (Wallac) at 550 nm.
A decrease in number of living cells results in a decrease in the total metabolic activity in the sample. The decrease directly correlates to the amount of purple color resulting from the solubilization of the purple formazan crystals.
• A549: 900 cells in 60 μl per well of 384 well plate (Greiner) • Medium: RPMI 1640, 2.5% FCS, glutamine, Pen/Strep. • Incubate 1 day at 37° C.
Induction: • Dilution of compound in DMSO: 3 μl 10 mM+27 μl DMSO, dilute 1:3 • Add 2 μl of compound dilution row to 95 μl of medium • Add 10 μl of compound dilution to 60 μl medium in test plate resulting in 0.3% DMSO per well • Incubate 120 h (5 days) at 37° C., 5% CO2
Analysis: • Add 7 μl MTT (5 mg/7 ml/well), incubate 4 h at 37° C. • Add 30 μl lysis buffer (20% SDS, 0.04 N HCl) per well • Incubate overnight at 37° C.
Measurement: • Victor 2 scanning multiwell spectrophotometer (Wallac) at 550 nm
Determination of IC50 was done using XL-fit (XLfit software (ID Business Solution Ltd., Guilford, Surrey, UK)).

Molecule `FC(F)(F)Oc1ccc(/C=C/c2nc(COc3ccc(CCCCc4c[nH]nn4)cc3)co2)cc1` [Example 1.1, 4-[4-(4-{2-[(E)-2-(4-Trifluoromethoxy-phenyl)-vinyl]-oxazol-4-ylmethoxy}-phenyl)-butyl]-1H-[1,2,3]triazole] has an IC50 (HEK293 cells) of 128 nM and an IC50 (A549 cells) of 200 to 1000 nM.

`Cn1ncc(CCCCc2ccc(OCc3coc(/C=C/c4ccc(OC(F)(F)F)cc4)n3)cc2)n1` [Example 1.3, 2-Methyl-4-[4-(4-{2-[(E)-2-(4-trifluoromethoxy-phenyl)-vinyl]-oxazol-4-ylmethoxy}-phenyl)-butyl]-2H-[1,2,3]triazole] was tested, and the IC50 (A549 cells) was 5 to 200 nM.

`Cn1cc(CCCCc2ccc(OCc3coc(/C=C/c4ccc(OC(F)(F)F)cc4)n3)cc2)nn1` [Example 1.4, 1-Methyl-4-[4-(4-{2-[(E)-2-(4-trifluoromethoxy-phenyl)-vinyl]-oxazol-4-ylmethoxy}-phenyl)-butyl]-1H-[1,2,3]triazole] gave an IC50 (HEK293 cells) of 5 to 250 nM and an IC50 (A549 cells) of 5 to 200 nM.

Work on `OCCn1cc(CCCCc2ccc(OCc3coc(/C=C/c4ccc(OC(F)(F)F)cc4)n3)cc2)nn1` [Example 1.6, 2-{4-[4-(4-{2-[(E)-2-(4-Trifluoromethoxy-phenyl)-vinyl]-oxazol-4-ylmethoxy}-phenyl)-butyl]-[1,2,3]triazol-1-yl}-ethanol] yielded an IC50 (HEK293 cells) of 166 nM.

`OCCn1nncc1CCCCc1ccc(OCc2coc(/C=C/c3ccc(OC(F)(F)F)cc3)n2)cc1` [Example 1.7, 2-{5-[4-(4-{2-[(E)-2-(4-Trifluoromethoxy-phenyl)-vinyl]-oxazol-4-ylmethoxy}-phenyl)-butyl]-[1,2,3]triazol-1-yl}-ethanol] gave an IC50 (HEK293 cells) of 5 to 250 nM.

For `N#CCn1ncc(CCCCc2ccc(OCc3coc(/C=C/c4ccc(OC(F)(F)F)cc4)n3)cc2)n1` [Example 1.14, {4-[4-(4-{2-[(E)-2-(4-Trifluoromethoxy-phenyl)-vinyl]-oxazol-4-ylmethoxy}-phenyl)-butyl]-[1,2,3]triazol-2-yl}-acetonitrile], the IC50 (HEK293 cells) was 250 to 1500 nM.

`N#CCn1nncc1CCCCc1ccc(OCc2coc(/C=C/c3ccc(OC(F)(F)F)cc3)n2)cc1` [Example 1.16, {5-[4-(4-{2-[(E)-2-(4-Trifluoromethoxy-phenyl)-vinyl]-oxazol-4-ylmethoxy}-phenyl)-butyl]-[1,2,3]triazol-1-yl}-acetonitrile] showed an IC50 (HEK293 cells) of 250 to 1500 nM.

Molecule `CC(C)([PH2]=O)n1cc(CCCCc2ccc(OCc3coc(/C=C/c4ccc(OC(F)(F)F)cc4)n3)cc2)nn1` [Example 1.17, 1-(Dimethyl-phosphinoylmethyl)-4-[4-(4-{2-[(E)-2-(4-trifluoromethoxy-phenyl)-vinyl]-oxazol-4-ylmethoxy}-phenyl)-butyl]-1H-[1,2,3]triazole] has an IC50 (HEK293 cells) of 250 to 1500 nM.

`CC(C)([PH2]=O)n1ncc(CCCCc2ccc(OCc3coc(/C=C/c4ccc(OC(F)(F)F)cc4)n3)cc2)n1` [Example 1.18, 2-(Dimethyl-phosphinoylmethyl)-4-[4-(4-{2-[(E)-2-(4-trifluoromethoxy-phenyl)-vinyl]-oxazol-4-ylmethoxy}-phenyl)-butyl]-2H-[1,2,3]triazole] gave an IC50 (HEK293 cells) of 5 to 250 nM.

`FC(F)(F)Oc1ccc(/C=C/c2nc(COc3ccc(CCCCc4cnn(CCN5CCOCC5)n4)cc3)co2)cc1` [Example 1.19, 4-(2-{4-[4-(4-{2-[(E)-2-(4-Trifluoromethoxy-phenyl)-vinyl]-oxazol-4-ylmethoxy}-phenyl)-butyl]-[1,2,3]triazol-2-yl}-ethyl)-morpholine] showed an IC50 (HEK293 cells) of 5 to 250 nM.

With `FC(F)(F)Oc1ccc(/C=C/c2nc(COc3ccc(CCCCc4nn[nH]n4)cc3)co2)cc1` [Example 2.1, 5-[4-(4-{2-[(E)-2-(4-Trifluoromethoxy-phenyl)-vinyl]-oxazol-4-ylmethoxy}-phenyl)-butyl]-2H-tetrazole] the IC50 (HEK293 cells) was 250 to 1500 nM and the IC50 (A549 cells) was 200 to 1000 nM.

In the case of `Cn1nnnc1CCCCc1ccc(OCc2coc(/C=C/c3ccc(OC(F)(F)F)cc3)n2)cc1` [Example 2.2, Methyl-5-[4-(4-{2-[(E)-2-(4-trifluoromethoxy-phenyl)-vinyl]-oxazol-4-ylmethoxy}-phenyl)-butyl]-1H-tetrazole], the IC50 (HEK293 cells) is reported as 5 to 250 nM and the IC50 (A549 cells) is reported as 17 nM.

`Cn1nnc(CCCCc2ccc(OCc3coc(/C=C/c4ccc(OC(F)(F)F)cc4)n3)cc2)n1` [Example 2.3, Methyl-5-[4-(4-{2-[(E)-2-(4-trifluoromethoxy-phenyl)-vinyl]-oxazol-4-ylmethoxy}-phenyl)-butyl]-2H-tetrazole] showed an IC50 (A549 cells) of 5 to 200 nM.

For `OCCn1nnnc1CCCCc1ccc(OCc2coc(C=Cc3ccc(OC(F)(F)F)cc3)n2)cc1` [Example 2.4, 2-{5-[4-(4-{2-[2-(4-Trifluoromethoxy-phenyl)-vinyl]-oxazol-4-ylmethoxy}-phenyl)-butyl]-tetrazol-1-yl}-ethanol], the IC50 (HEK293 cells) was 250 to 1500 nM and the IC50 (A549 cells) was 200 to 1000 nM.

`OCCn1nnc(CCCCc2ccc(OCc3coc(C=Cc4ccc(OC(F)(F)F)cc4)n3)cc2)n1` [Example 2.5, 2-{5-[4-(4-{2-[2-(4-Trifluoromethoxy-phenyl)-vinyl]-oxazol-4-ylmethoxy}-phenyl)-butyl]-tetrazol-2-yl}-ethanol] was tested, and the IC50 (A549 cells) was 5 to 200 nM.
